Measured values reported in patent US8236729B2, “Herbicidal compositions” (Bayer Cropscience AG, priority 2004, dated 2012).

Tested on: Lolium multiflorum
Test: Outdoor trial, post-emergence herbicidal action (Example 5.2)
Assay type: in vivo
Settings: 1080 g of AS/ha, application at the 2-5-leaf stage (post-emergence), evaluation 55 days after treatment
Procedure: The herbicidal efficacy of the active compounds or active compound mixtures was scored visually by comparing the treated pots (soil) with untreated controls. The damage and development of all above-ground plant parts was recorded. Scoring was done on a percentage scale (100% action=all plants dead or not emerged; 50% action=50% of the plants and green plant parts dead or not emerged; 0% action=no discernible action=like control plot). The score figures of in any case 4 repetitions (pots) were averaged.
When applying the combinations according to the invention, herbicidal effects are frequently observed on a harmful plant species which exceed the formal total of the effects of the herbicides present when these are applied by themselves. Alternatively, it is observed in some cases that a lower application rate is required for the herbicide combination in order to achieve the same effect on a harmful plant species in comparison with the individual products. […] When the data observed already exceed the formal total of the data in the experiments with individual applications, they likewise exceed the expected value according to Colby, which is calculated using the formula below and is likewise regarded as an indication of synergism (cf. S. R. Colby; in Weeds 15 (1967) pp. 20 to 22): E=A+B−(A·B/100) […]

## Glyphosate-isopropylammonium [(B2.1.2.1)]
  Herbicidal action [%] against Lolium multiflorum: 18%
